{
  "source": "patent US20240158375A1",
  "about": "“COMPOUNDS AND METHODS FOR THE TREATMENT OF OCULAR DISORDERS” (Azura Ophthalmics Ltd., priority 2020, published 2024)",
  "origin": "cited, not measured here",
  "key": {"integrin α4": {"molecular_target": "integrin α4 (Homo sapiens, UniProt P05556+P13612)", "sequence (P13612 34-1032, species assumed)": "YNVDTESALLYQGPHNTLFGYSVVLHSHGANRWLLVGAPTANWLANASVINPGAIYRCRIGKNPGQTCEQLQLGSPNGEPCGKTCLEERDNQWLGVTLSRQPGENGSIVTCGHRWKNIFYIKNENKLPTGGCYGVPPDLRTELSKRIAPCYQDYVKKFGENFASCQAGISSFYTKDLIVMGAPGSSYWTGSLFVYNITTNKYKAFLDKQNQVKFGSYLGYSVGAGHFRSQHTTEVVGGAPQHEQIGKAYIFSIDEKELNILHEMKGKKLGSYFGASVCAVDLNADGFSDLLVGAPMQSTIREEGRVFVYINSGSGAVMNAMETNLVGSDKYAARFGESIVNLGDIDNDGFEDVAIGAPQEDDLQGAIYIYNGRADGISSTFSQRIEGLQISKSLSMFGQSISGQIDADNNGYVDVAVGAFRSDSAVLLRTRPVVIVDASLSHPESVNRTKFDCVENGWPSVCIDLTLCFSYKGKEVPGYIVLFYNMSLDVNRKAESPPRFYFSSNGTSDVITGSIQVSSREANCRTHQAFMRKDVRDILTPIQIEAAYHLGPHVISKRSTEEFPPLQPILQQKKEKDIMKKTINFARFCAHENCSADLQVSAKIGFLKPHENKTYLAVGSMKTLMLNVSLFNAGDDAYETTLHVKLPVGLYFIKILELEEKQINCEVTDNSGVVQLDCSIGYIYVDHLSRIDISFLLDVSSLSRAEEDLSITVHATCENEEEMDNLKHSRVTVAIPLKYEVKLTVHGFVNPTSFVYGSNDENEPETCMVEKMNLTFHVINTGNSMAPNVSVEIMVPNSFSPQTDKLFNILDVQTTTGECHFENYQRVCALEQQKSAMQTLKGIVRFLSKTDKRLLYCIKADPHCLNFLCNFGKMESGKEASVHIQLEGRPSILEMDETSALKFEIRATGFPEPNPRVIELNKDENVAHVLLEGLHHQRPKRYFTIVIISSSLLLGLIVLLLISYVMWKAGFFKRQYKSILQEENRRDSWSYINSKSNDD", "sequence (P05556 21-798, species assumed)": "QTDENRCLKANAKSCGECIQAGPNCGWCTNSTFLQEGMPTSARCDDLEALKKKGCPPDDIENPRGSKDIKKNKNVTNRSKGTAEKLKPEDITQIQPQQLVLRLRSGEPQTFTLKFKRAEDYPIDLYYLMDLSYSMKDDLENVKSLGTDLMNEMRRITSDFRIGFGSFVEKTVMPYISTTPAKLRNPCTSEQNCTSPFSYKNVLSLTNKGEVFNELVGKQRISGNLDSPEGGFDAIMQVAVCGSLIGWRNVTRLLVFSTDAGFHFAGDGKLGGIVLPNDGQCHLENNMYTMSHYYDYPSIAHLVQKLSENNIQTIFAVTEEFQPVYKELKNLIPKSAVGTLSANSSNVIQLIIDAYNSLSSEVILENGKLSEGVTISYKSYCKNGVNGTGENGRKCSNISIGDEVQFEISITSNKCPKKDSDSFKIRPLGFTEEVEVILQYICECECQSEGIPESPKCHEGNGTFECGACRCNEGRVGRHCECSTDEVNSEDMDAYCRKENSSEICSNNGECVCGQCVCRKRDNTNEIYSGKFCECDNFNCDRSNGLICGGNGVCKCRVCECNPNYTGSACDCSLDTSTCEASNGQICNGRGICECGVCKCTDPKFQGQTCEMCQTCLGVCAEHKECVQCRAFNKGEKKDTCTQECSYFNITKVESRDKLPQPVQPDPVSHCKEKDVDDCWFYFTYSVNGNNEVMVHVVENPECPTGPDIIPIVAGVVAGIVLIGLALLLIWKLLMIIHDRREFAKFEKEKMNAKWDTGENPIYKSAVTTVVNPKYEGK", "settings": "Ravensberg et al, Allergy (2006) 61, 1097-1103"}, "murine DS model": {"tested_on": "murine DS model", "settings": "Invest. Ophthalmol. Vis. Sci. (2015) 56(10), 5888-5895"}},
  "data": [
    {"compound": "Cc1ccccc1OCC(=O)N[C@@H](CC(C)C)C(=O)N[C@@H](Cc1ccc(OC(=O)N2CCC(C(N)=O)CC2)cc1)C(=O)O", "note": "[(S)-3-(4-((4-carbamoylpiperidine-1-carbonyl)oxy)phenyl)-2-((S)-4-methyl-2-(2-(o-tolyloxy)acetamido)pentanamido)propanoic acid]", "values": [
      {"measurement": "integrin α4 antagonist activity", "setting": "integrin α4", "result": "potent integrin a4 antagonist"},
      {"measurement": "objective signs of dry eye", "setting": "murine DS model", "result": "improvements in objective signs of dry eye"}
    ]}
  ]
}
